Reference: the NIST ThermoML archive (doi:10.1021/je025649t)

How the values were obtained:
[1] = heat capacity at constant pressure per volume; xn = mol fraction of the nth substance listed; details: 298.15 K, 101 kPa, Liquid, Flow calorimetry
[2] = refractive index (Na D-line) (dimensionless); xn = mol fraction of the nth substance listed; details: 298.15 K, 101 kPa, Liquid, refractometer
[3] = xn = mol fraction of the nth substance listed; details: 298.15 K, 101 kPa, Liquid, Vibrating tube method
[4] = excess molar enthalpy (molar enthalpy of mixing); xn = mol fraction of the nth substance listed; details: 298.15 K, 101 kPa, Liquid, Flow calorimetry
[5] = refractive index (Na D-line) (dimensionless); details: 298.15 K; 101.33 kPa; Liquid; refractometer
[6] = molar heat capacity at constant pressure; details: 298.15 K; 101.33 kPa; Liquid; Flow calorimetry
[7] = 298.15 K; 101.33 kPa; Liquid; Vibrating tube method

CCCCCC(C)=O [2-heptanone] + C1CCOCC1
Details | excess molar enthalpy [kcal/mol] | heat capacity [J/K/m3] | mass density [kg/m3] | refractive index
[1], x2 = 0.0687 | – | 1711900 | – | –
[1], x2 = 0.1469 | – | 1699600 | – | –
[1], x2 = 0.2226 | – | 1687400 | – | –
[1], x2 = 0.3113 | – | 1672200 | – | –
[1], x2 = 0.3855 | – | 1659100 | – | –
[1], x2 = 0.4613 | – | 1645000 | – | –
[1], x2 = 0.5449 | – | 1628000 | – | –
[1], x2 = 0.6288 | – | 1610700 | – | –
[1], x2 = 0.7034 | – | 1594700 | – | –
[1], x2 = 0.7801 | – | 1576700 | – | –
[1], x2 = 0.8581 | – | 1558500 | – | –
[1], x2 = 0.9388 | – | 1538500 | – | –
[2], x2 = 0.0855 | – | – | – | 1.4075
[2], x2 = 0.1588 | – | – | – | 1.4081
[2], x2 = 0.2375 | – | – | – | 1.40879
[2], x2 = 0.3113 | – | – | – | 1.40947
[2], x2 = 0.3532 | – | – | – | 1.40988
[2], x2 = 0.3936 | – | – | – | 1.41029
[2], x2 = 0.4287 | – | – | – | 1.41065
[2], x2 = 0.4658 | – | – | – | 1.41105
[2], x2 = 0.5486 | – | – | – | 1.41198
[2], x2 = 0.5896 | – | – | – | 1.41246
[2], x2 = 0.6261 | – | – | – | 1.41291
[2], x2 = 0.6665 | – | – | – | 1.41343
[2], x2 = 0.7046 | – | – | – | 1.41393
[2], x2 = 0.7855 | – | – | – | 1.41507
[2], x2 = 0.8677 | – | – | – | 1.41633
[2], x2 = 0.9473 | – | – | – | 1.41768
[3], x2 = 0.0796 | – | – | 814.73 | –
[3], x2 = 0.1679 | – | – | 819.18 | –
[3], x2 = 0.2235 | – | – | 822.12 | –
[3], x2 = 0.3185 | – | – | 827.4 | –
[3], x2 = 0.3518 | – | – | 829.33 | –
[3], x2 = 0.4045 | – | – | 832.49 | –
[3], x2 = 0.4377 | – | – | 834.53 | –
[3], x2 = 0.4617 | – | – | 836.04 | –
[3], x2 = 0.5166 | – | – | 839.61 | –
[3], x2 = 0.5455 | – | – | 841.54 | –
[3], x2 = 0.5907 | – | – | 844.65 | –
[3], x2 = 0.6312 | – | – | 847.53 | –
[3], x2 = 0.6667 | – | – | 850.14 | –
[3], x2 = 0.7077 | – | – | 853.23 | –
[3], x2 = 0.7101 | – | – | 853.42 | –
[3], x2 = 0.7907 | – | – | 859.84 | –
[3], x2 = 0.8696 | – | – | 866.59 | –
[3], x2 = 0.9539 | – | – | 874.37 | –
[4], x2 = 0.1 | 0.00354 | – | – | –
[4], x2 = 0.15 | 0.0053 | – | – | –
[4], x2 = 0.2 | 0.00696 | – | – | –
[4], x2 = 0.25 | 0.0082 | – | – | –
[4], x2 = 0.3 | 0.00946 | – | – | –
[4], x2 = 0.35 | 0.0106 | – | – | –
[4], x2 = 0.4 | 0.0118 | – | – | –
[4], x2 = 0.45 | 0.0129 | – | – | –
[4], x2 = 0.5 | 0.0138 | – | – | –
[4], x2 = 0.55 | 0.0144 | – | – | –
[4], x2 = 0.6 | 0.0147 | – | – | –
[4], x2 = 0.65 | 0.0146 | – | – | –
[4], x2 = 0.7 | 0.0142 | – | – | –
[4], x2 = 0.75 | 0.0134 | – | – | –
[4], x2 = 0.8 | 0.012 | – | – | –
[4], x2 = 0.85 | 0.0103 | – | – | –
[4], x2 = 0.9 | 0.00793 | – | – | –

C1CCOCC1 [tetrahydropyran]
Details | mass density [kg/m3] | molar heat capacity at constant pressure [J/K/mol] | refractive index
[5] | – | – | 1.41865
[6] | – | 149.32 | –
[7] | 878.91 | – | –

O=C1CCCCC1 [cyclohexanone] + C1CCOCC1
[4]
Details | excess molar enthalpy [kcal/mol]
x2 = 0.1 | 0.00647
x2 = 0.15 | 0.00919
x2 = 0.2 | 0.0117
x2 = 0.25 | 0.0139
x2 = 0.3 | 0.016
x2 = 0.35 | 0.0176
x2 = 0.4 | 0.0189
x2 = 0.45 | 0.0198
x2 = 0.5 | 0.0207
x2 = 0.55 | 0.0214
x2 = 0.6 | 0.0215
x2 = 0.65 | 0.0209
x2 = 0.7 | 0.0199
x2 = 0.75 | 0.0184
x2 = 0.8 | 0.0164
x2 = 0.85 | 0.0137
x2 = 0.9 | 0.01

CCCC(C)=O [pentan-2-one] + C1CCOCC1
Details | excess molar enthalpy [kcal/mol] | heat capacity [J/K/m3] | mass density [kg/m3] | refractive index
[1], x2 = 0.0611 | – | 1698200 | – | –
[1], x2 = 0.1398 | – | 1685200 | – | –
[1], x2 = 0.2219 | – | 1670700 | – | –
[1], x2 = 0.3029 | – | 1656100 | – | –
[1], x2 = 0.3789 | – | 1641900 | – | –
[1], x2 = 0.457 | – | 1627300 | – | –
[1], x2 = 0.5376 | – | 1611700 | – | –
[1], x2 = 0.6153 | – | 1596800 | – | –
[1], x2 = 0.698 | – | 1580600 | – | –
[1], x2 = 0.7772 | – | 1565100 | – | –
[1], x2 = 0.8503 | – | 1550300 | – | –
[1], x2 = 0.9311 | – | 1533300 | – | –
[2], x2 = 0.0811 | – | – | – | 1.39011
[2], x2 = 0.1565 | – | – | – | 1.39223
[2], x2 = 0.2425 | – | – | – | 1.39468
[2], x2 = 0.3122 | – | – | – | 1.39668
[2], x2 = 0.3557 | – | – | – | 1.39796
[2], x2 = 0.4037 | – | – | – | 1.39937
[2], x2 = 0.4406 | – | – | – | 1.40047
[2], x2 = 0.4757 | – | – | – | 1.40153
[2], x2 = 0.5107 | – | – | – | 1.40259
[2], x2 = 0.5449 | – | – | – | 1.40364
[2], x2 = 0.5933 | – | – | – | 1.40514
[2], x2 = 0.6252 | – | – | – | 1.40614
[2], x2 = 0.6681 | – | – | – | 1.4075
[2], x2 = 0.708 | – | – | – | 1.40878
[2], x2 = 0.7915 | – | – | – | 1.4115
[2], x2 = 0.8776 | – | – | – | 1.41439
[2], x2 = 0.9411 | – | – | – | 1.41658
[3], x2 = 0.0708 | – | – | 806.39 | –
[3], x2 = 0.1523 | – | – | 812.26 | –
[3], x2 = 0.2361 | – | – | 818.39 | –
[3], x2 = 0.3015 | – | – | 823.22 | –
[3], x2 = 0.3529 | – | – | 827.06 | –
[3], x2 = 0.3858 | – | – | 829.54 | –
[3], x2 = 0.4384 | – | – | 833.53 | –
[3], x2 = 0.4683 | – | – | 835.82 | –
[3], x2 = 0.5046 | – | – | 838.6 | –
[3], x2 = 0.5548 | – | – | 842.49 | –
[3], x2 = 0.5825 | – | – | 844.66 | –
[3], x2 = 0.6397 | – | – | 849.17 | –
[3], x2 = 0.6747 | – | – | 851.95 | –
[3], x2 = 0.7079 | – | – | 854.61 | –
[3], x2 = 0.7776 | – | – | 860.26 | –
[3], x2 = 0.8646 | – | – | 867.44 | –
[3], x2 = 0.9428 | – | – | 874.02 | –
[4], x2 = 0.1 | 0.00636 | – | – | –
[4], x2 = 0.15 | 0.0092 | – | – | –
[4], x2 = 0.2 | 0.0119 | – | – | –
[4], x2 = 0.25 | 0.0144 | – | – | –
[4], x2 = 0.3 | 0.0164 | – | – | –
[4], x2 = 0.35 | 0.0182 | – | – | –
[4], x2 = 0.4 | 0.0197 | – | – | –
[4], x2 = 0.45 | 0.0209 | – | – | –
[4], x2 = 0.5 | 0.0218 | – | – | –
[4], x2 = 0.55 | 0.0222 | – | – | –
[4], x2 = 0.6 | 0.0222 | – | – | –
[4], x2 = 0.65 | 0.0219 | – | – | –
[4], x2 = 0.7 | 0.0212 | – | – | –
[4], x2 = 0.75 | 0.0197 | – | – | –
[4], x2 = 0.8 | 0.0174 | – | – | –
[4], x2 = 0.85 | 0.0145 | – | – | –
[4], x2 = 0.9 | 0.0107 | – | – | –
